{
  "source": "paper PMC12040169",
  "about": "(PLOS Biology, 2025)",
  "data": [
    {"test": "in vitro", "details": "human, hela cells, % viability", "units": {"viability at 28.5 h, 10 µM": "%"}, "values": [
      {"smiles": "O=C(Nc1nnc(C2=COCCO2)o1)c1cc(Cl)cc(Cl)c1", "note": "[CBK287418]", "viability at 28.5 h, 10 µM": 91.1},
      {"smiles": "O=C(Nc1nnc(C2=COCCO2)o1)c1ccc(Cl)cc1Cl", "note": "[CBK287419]", "viability at 28.5 h, 10 µM": 78},
      {"smiles": "O=C(Nc1nnc(-c2ccco2)o1)c1ccccc1", "note": "[CBK287420]", "viability at 28.5 h, 10 µM": 96.3},
      {"smiles": "COc1cccc(C(=O)Nc2nnc(-c3ccco3)o2)c1", "note": "[CBK287421]", "viability at 28.5 h, 10 µM": 106},
      {"smiles": "O=C(Nc1nnc(-c2ccco2)o1)c1cccc(C(F)(F)F)c1", "note": "[CBK287422]", "viability at 28.5 h, 10 µM": 88.6},
      {"smiles": "O=C(Nc1nnc(-c2ccco2)o1)C(c1ccccc1)c1ccccc1", "note": "[CBK287424]", "viability at 28.5 h, 10 µM": 91.9},
      {"smiles": "CC(=O)Nc1nnc(-c2ccc3c(c2)CCCC3)o1", "note": "[CBK287426]", "viability at 28.5 h, 10 µM": 88},
      {"smiles": "N#Cc1ccc(C(=O)Nc2nnc(-c3ccccn3)o2)cc1", "note": "[CBK287428]", "viability at 28.5 h, 10 µM": 100},
      {"smiles": "Cc1cccc(C(=O)Nc2nnc(-c3ccncc3)o2)c1", "note": "[CBK287430]", "viability at 28.5 h, 10 µM": 91.5},
      {"smiles": "COc1cc2ccccc2cc1C(=O)Nc1nnc(-c2ccncc2)o1", "note": "[CBK287432]", "viability at 28.5 h, 10 µM": 93.1},
      {"smiles": "CCC(=O)NCCc1cc2ccc(C)cc2[nH]c1=O", "note": "[CBK287434]", "viability at 28.5 h, 10 µM": 92.4},
      {"smiles": "COc1ccc(C(=O)Nc2cc(C)c3c(=O)oc4ccccc4c3n2)cc1", "note": "[CBK287435]", "viability at 28.5 h, 10 µM": 79.6},
      {"smiles": "Cc1cc(NC(=O)C2CCCC2)nc2c1c(=O)oc1ccccc12", "note": "[CBK287438]", "viability at 28.5 h, 10 µM": 93.2},
      {"smiles": "Cc1cc(NC(=O)C(C)(C)C)nc2c1c(=O)oc1ccccc12", "note": "[CBK287443]", "viability at 28.5 h, 10 µM": 78.7},
      {"smiles": "O=C(NCc1ccc2c(c1)OCO2)c1cnc2sccn2c1=O", "note": "[CBK287446]", "viability at 28.5 h, 10 µM": 91},
      {"smiles": "Cc1ccc(NC(=O)c2cnc3sccn3c2=O)cc1", "note": "[CBK287448]", "viability at 28.5 h, 10 µM": 93.1},
      {"smiles": "O=C(Nc1ccc(F)c(F)c1)c1cnc2sccn2c1=O", "note": "[CBK287450]", "viability at 28.5 h, 10 µM": 104},
      {"smiles": "Cc1cccc(NC(=O)c2cnc3scc(C)n3c2=O)c1", "note": "[CBK287453]", "viability at 28.5 h, 10 µM": 112},
      {"smiles": "Cc1csc2ncc(C(=O)Nc3ccccc3F)c(=O)n12", "note": "[CBK287455]", "viability at 28.5 h, 10 µM": 113},
      {"smiles": "Cc1csc2ncc(C(=O)Nc3ccccc3C(F)(F)F)c(=O)n12", "note": "[CBK287456]", "viability at 28.5 h, 10 µM": 86.4},
      {"smiles": "Cc1csc2ncc(C(=O)Nc3ccc(F)c(Cl)c3)c(=O)n12", "note": "[CBK287460]", "viability at 28.5 h, 10 µM": 107},
      {"smiles": "COc1ccc(OC)c(NC(=O)c2cnc3scc(C)n3c2=O)c1", "note": "[CBK287462]", "viability at 28.5 h, 10 µM": 90.5},
      {"smiles": "COc1cccc2sc(Nc3nc4c(s3)C(=O)CC(C)(C)C4)nc12", "note": "[CBK287467]", "viability at 28.5 h, 10 µM": 86},
      {"smiles": "COc1cccc2sc(Nc3nc(-c4cccs4)cs3)nc12", "note": "[CBK287469]", "viability at 28.5 h, 10 µM": 82.8},
      {"smiles": "COc1cccc2sc(Nc3nc(-c4cccnc4)cs3)nc12", "note": "[CBK287470]", "viability at 28.5 h, 10 µM": 98.5},
      {"smiles": "COc1cccc2sc(Nc3nc(C)c(C(C)=O)s3)nc12", "note": "[CBK287471]", "viability at 28.5 h, 10 µM": 109},
      {"smiles": "Fc1cccc2sc(Nc3nc(-c4cccs4)cs3)nc12", "note": "[CBK287476]", "viability at 28.5 h, 10 µM": 85.9},
      {"smiles": "CC1CCc2c(sc(Nc3nc4c(F)cccc4s3)c2C(N)=O)C1", "note": "(stereo not drawn) [CBK287477]", "viability at 28.5 h, 10 µM": 102},
      {"smiles": "Fc1cccc2sc(Nc3nc(-c4ccccn4)cs3)nc12", "note": "[CBK287479]", "viability at 28.5 h, 10 µM": 108},
      {"smiles": "Fc1cccc2sc(Nc3nnc(-c4ccco4)o3)nc12", "note": "[CBK287480]", "viability at 28.5 h, 10 µM": 82.6},
      {"smiles": "COc1ccc2nc(Nc3nc4c(s3)C(=O)CC(C)(C)C4)sc2c1", "note": "[CBK287481]", "viability at 28.5 h, 10 µM": 90.5},
      {"smiles": "COc1ccc2nc(Nc3nc4ccc(S(C)(=O)=O)cc4s3)sc2c1", "note": "[CBK287484]", "viability at 28.5 h, 10 µM": 102},
      {"smiles": "Fc1ccc2nc(Nc3nnc(-c4ccco4)o3)sc2c1", "note": "[CBK287488]", "viability at 28.5 h, 10 µM": 94.5},
      {"smiles": "CC(=O)Nc1ccc2nc(Nc3nc4c(F)cc(F)cc4s3)sc2c1", "note": "[CBK287489]", "viability at 28.5 h, 10 µM": 107},
      {"smiles": "c1cncc(-c2csc(Nc3nc4cc5c(cc4s3)OCO5)n2)c1", "note": "[CBK287490]", "viability at 28.5 h, 10 µM": 87.2},
      {"smiles": "c1c2c(cc3sc(N4CCOCC4)nc13)OCO2", "note": "[CBK287494]", "viability at 28.5 h, 10 µM": 97.7},
      {"smiles": "c1ccc(N2CCN(c3nc4cc5c(cc4s3)OCO5)CC2)cc1", "note": "[CBK287495]", "viability at 28.5 h, 10 µM": 108},
      {"smiles": "c1c2c(cc3sc(N4CCCCC4)nc13)OCCO2", "note": "[CBK287497]", "viability at 28.5 h, 10 µM": 89.3},
      {"smiles": "c1ccc(N2CCN(c3nc4cc5c(cc4s3)OCCO5)CC2)cc1", "note": "[CBK287499]", "viability at 28.5 h, 10 µM": 93.6},
      {"smiles": "CCSc1nnc(Cc2cc(=O)[nH]c(=O)[nH]2)n1-c1ccc(F)cc1", "note": "[CBK287500]", "viability at 28.5 h, 10 µM": 85.2},
      {"smiles": "Cc1c(C(=O)Nc2ccccn2)sc2nc(-c3ccccc3)cn12", "note": "[CBK287501]", "viability at 28.5 h, 10 µM": 98.3},
      {"smiles": "Cc1ccc(Cn2cnc3c(nnn3-c3ccc(C)cc3)c2=O)cc1", "note": "[CBK287502]", "viability at 28.5 h, 10 µM": 102},
      {"smiles": "Cc1ccc(C(=O)Nc2cccc(-c3cn4cccnc4n3)c2)cc1", "note": "[CBK287503]", "viability at 28.5 h, 10 µM": 93.8},
      {"smiles": "Cc1c(-c2cccc(NC(=O)c3ccccc3)c2)nc2ncccn12", "note": "[CBK287504]", "viability at 28.5 h, 10 µM": 67.3},
      {"smiles": "Cc1cc2cc(CCNC(=O)C(=O)c3c[nH]c4ccccc34)c(O)nc2cc1C", "note": "[CBK287511]", "viability at 28.5 h, 10 µM": 89.5},
      {"smiles": "O=C(CSc1ccc2nnc(-c3ccccc3)n2n1)NCc1ccco1", "note": "[CBK287514]", "viability at 28.5 h, 10 µM": 95.6},
      {"smiles": "O=C(CSc1ccc2nnc(-c3ccccc3)n2n1)NCC1CCCO1", "note": "(stereo not drawn) [CBK287515]", "viability at 28.5 h, 10 µM": 96.6},
      {"smiles": "Cc1csc(NC(=O)CSc2ccc3nnc(-c4ccccc4)n3n2)n1", "note": "[CBK287517]", "viability at 28.5 h, 10 µM": 105},
      {"smiles": "Cc1cc(NC(=O)CSc2ccc3nnc(-c4ccccc4)n3n2)no1", "note": "[CBK287518]", "viability at 28.5 h, 10 µM": 94.8},
      {"smiles": "O=C(CSc1ccc2nnc(-c3ccc(F)cc3)n2n1)N1CCCC1", "note": "[CBK287519]", "viability at 28.5 h, 10 µM": 85.3},
      {"smiles": "O=C(CSc1ccc2nnc(-c3ccc(F)cc3)n2n1)N1CCCCC1", "note": "[CBK287520]", "viability at 28.5 h, 10 µM": 98.4},
      {"smiles": "O=C(CSc1ccc2nnc(-c3ccc(F)cc3)n2n1)N1CCOCC1", "note": "[CBK287521]", "viability at 28.5 h, 10 µM": 96.9},
      {"smiles": "O=C(CSc1ccc2nnc(-c3cccc(F)c3)n2n1)Nc1nccs1", "note": "[CBK287522]", "viability at 28.5 h, 10 µM": 85.8},
      {"smiles": "CCC(Sc1ccc2nnc(-c3ccc(C)cc3)n2n1)C(=O)O", "note": "(stereo not drawn) [CBK287524]", "viability at 28.5 h, 10 µM": 104},
      {"smiles": "COc1ccc(-c2nnc3ccc(SC(C)C)nn23)cc1OC", "note": "[CBK287526]", "viability at 28.5 h, 10 µM": 101},
      {"smiles": "COc1ccc(-c2nnc3ccc(SCC(=O)N4CCCC4)nn23)cc1OC", "note": "[CBK287527]", "viability at 28.5 h, 10 µM": 85.9},
      {"smiles": "COc1ccc(-c2nnc3ccc(SCc4ccccn4)nn23)cc1OC", "note": "[CBK287528]", "viability at 28.5 h, 10 µM": 97.4},
      {"smiles": "O=C(Cn1cnc2c(cnn2-c2ccccc2)c1=O)NCc1ccco1", "note": "[CBK287531]", "viability at 28.5 h, 10 µM": 101},
      {"smiles": "Cc1ccc(-n2ncc3c(=O)n(CC(=O)Nc4cccc(C)c4)cnc32)cc1", "note": "[CBK287533]", "viability at 28.5 h, 10 µM": 103},
      {"smiles": "Cc1ccc(-n2ncc3c(=O)n(CC(=O)Nc4ccc(C)cc4C)cnc32)cc1", "note": "[CBK287535]", "viability at 28.5 h, 10 µM": 83.4},
      {"smiles": "O=C(Cn1cnc2c(cnn2-c2ccc(F)cc2)c1=O)Nc1ccc(F)cc1F", "note": "[CBK287537]", "viability at 28.5 h, 10 µM": 89.3},
      {"smiles": "O=C(Cn1cnc2c(cnn2-c2ccc(F)cc2)c1=O)NCc1ccccc1", "note": "[CBK287538]", "viability at 28.5 h, 10 µM": 93.1},
      {"smiles": "NC(=O)c1nc(-c2ccccc2)nc2c1[nH]c(=O)n2-c1cccc(Cl)c1", "note": "[CBK287544]", "viability at 28.5 h, 10 µM": 104},
      {"smiles": "NC(=O)c1nc(-c2ccco2)nc2c1[nH]c(=O)n2-c1ccc(Cl)cc1", "note": "[CBK287545]", "viability at 28.5 h, 10 µM": 91.2},
      {"smiles": "COc1ccc(-n2c(=O)[nH]cc(C(=O)Nc3cc(C)ccc3OC)c2=O)cc1", "note": "[CBK287548]", "viability at 28.5 h, 10 µM": 107},
      {"smiles": "COc1ccc(OC)c(NC(=O)c2c[nH]c(=O)n(-c3ccc(F)cc3)c2=O)c1", "note": "[CBK287552]", "viability at 28.5 h, 10 µM": 99}
    ]}
  ]
}
